Laboratory results as given in ChEMBL document CHEMBL3988442, “University of Dundee, Small-Polar-MMV Screening Library” (2021).
Where “and” joins values, the source holds several entries; their conditions need not be identical. Identical values can stand only once.

Legend:
Histidine--tRNA ligase [1] = molecular target: T1, Histidine--tRNA ligase (Trypanosoma cruzi (strain CL Brener), UniProt Q4DA54); test: Trypanosoma cruzi histidyl tRNA synthetase (Tc-HisRS); type: functional
T1 sequence (Q4DA54 whole entry): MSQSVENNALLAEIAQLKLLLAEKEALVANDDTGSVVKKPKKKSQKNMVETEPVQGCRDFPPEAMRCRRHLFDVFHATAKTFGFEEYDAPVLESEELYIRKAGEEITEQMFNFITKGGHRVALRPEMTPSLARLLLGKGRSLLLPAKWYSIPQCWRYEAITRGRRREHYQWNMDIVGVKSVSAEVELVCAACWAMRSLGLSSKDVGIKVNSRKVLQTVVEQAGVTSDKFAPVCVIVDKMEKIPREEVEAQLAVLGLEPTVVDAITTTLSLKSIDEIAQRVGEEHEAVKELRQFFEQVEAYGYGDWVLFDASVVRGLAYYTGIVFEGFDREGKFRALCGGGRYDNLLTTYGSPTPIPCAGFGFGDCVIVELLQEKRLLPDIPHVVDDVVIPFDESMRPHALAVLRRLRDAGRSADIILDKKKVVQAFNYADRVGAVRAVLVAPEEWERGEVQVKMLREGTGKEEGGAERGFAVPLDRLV

Histidine--tRNA ligase [2] = molecular target: T2, Histidine--tRNA ligase (Leishmania infantum, UniProt A4I591); test: Leishmania infantum Histidine tRNA synthetase (LdHisRS); type: functional
T2 sequence (A4I591 whole entry): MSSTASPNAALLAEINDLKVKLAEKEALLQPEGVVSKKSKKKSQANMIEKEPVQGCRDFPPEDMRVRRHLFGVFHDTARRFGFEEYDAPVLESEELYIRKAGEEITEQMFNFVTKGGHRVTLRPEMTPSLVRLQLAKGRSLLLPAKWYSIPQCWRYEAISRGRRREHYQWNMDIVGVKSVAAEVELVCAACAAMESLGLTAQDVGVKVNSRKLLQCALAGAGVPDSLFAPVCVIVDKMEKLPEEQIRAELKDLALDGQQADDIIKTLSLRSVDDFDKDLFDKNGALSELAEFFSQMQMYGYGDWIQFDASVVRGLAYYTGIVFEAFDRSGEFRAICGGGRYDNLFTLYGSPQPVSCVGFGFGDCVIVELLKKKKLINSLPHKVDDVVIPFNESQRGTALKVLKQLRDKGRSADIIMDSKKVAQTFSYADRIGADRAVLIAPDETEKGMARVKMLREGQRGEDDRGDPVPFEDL

[3] = microbe, parasite or virus in culture; settings: Mycobacterium tuberculosis, 96 h, read-out: pIC50 (converted)
[4] = microbe, parasite or virus in culture; settings: Mycobacterium tuberculosis, 72 h, read-out: pIC50 (converted)
ClpP1P2 = ClpP1P2 (Mycobacterium tuberculosis (strain ATCC 25618 / H37Rv), UniProt P9WPC3+P9WPC5); test: in vitro assay to detect presence of AMC directly proportional to the activity of ClpP1P2. GHDDI collaboration.; type: functional
ClpP1P2, sequence (P9WPC5 whole entry): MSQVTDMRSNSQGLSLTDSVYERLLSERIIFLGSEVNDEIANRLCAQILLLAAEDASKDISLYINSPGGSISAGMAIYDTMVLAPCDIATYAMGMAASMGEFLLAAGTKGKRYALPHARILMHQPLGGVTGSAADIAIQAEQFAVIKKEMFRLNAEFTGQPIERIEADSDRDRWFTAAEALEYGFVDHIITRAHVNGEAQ
ClpP1P2, sequence (P9WPC3 whole entry): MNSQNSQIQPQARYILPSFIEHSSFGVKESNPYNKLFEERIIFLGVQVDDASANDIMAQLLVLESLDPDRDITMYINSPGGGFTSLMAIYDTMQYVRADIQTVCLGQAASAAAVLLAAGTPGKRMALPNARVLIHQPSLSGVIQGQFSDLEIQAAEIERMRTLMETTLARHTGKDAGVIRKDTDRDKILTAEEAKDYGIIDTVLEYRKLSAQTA

Row | SMILES | IC50 (Histidine--tRNA ligase [1]) | other results
1 | O=C(NCc1cnn2cccnc12)c1cccc(CC2CCNCC2)c1 | 39.3 µM and 21.3 µM | IC50 (Histidine--tRNA ligase [2]): 17.6 µM and 18.9 µM; IC50 [3]: 45.6 µM; IC50 [4]: 41.5 µM
2 | Cc1nc(CNC2CCCN(c3cccnn3)C2)no1 (configuration not stated) | > 100 µM | –
3 | O=C(O)CNc1cc(-c2nccnc2N2CCCC2)c2cc[nH]c2n1 | 38.4 µM and 34.5 µM | –
4 | COc1cccn(CC(=O)N2CCCC3(CCOCC3)C2)c1=O | 5.31 µM and 6.94 µM | IC50 (Histidine--tRNA ligase [2]): > 100 µM
5 | Fc1cc(F)cc(CN2CCC(c3cc4ncccc4cn3)CC2)c1 | > 100 µM | –
6 | Cc1cnc(N2CCC3(CCN(CC4CCCC4)C3=O)CC2)nc1 | > 100 µM | –
7 | CCN(CC)CCNC(=O)CCc1c(C)nn(-c2ccccc2Br)c1C | > 100 µM | –
8 | O=C(O)c1ccc2ccc(N3CCN(CC4CC4)CC3)n2c1 | 38.6 µM and 57.7 µM | –
9 | Cc1ccc(N2CCC3(CC2)COCCN(c2nccs2)C3)nn1 | 96.2 µM and 98.9 µM | IC50 (Histidine--tRNA ligase [2]): 33.4 µM and 28.7 µM
10 | Cc1nc2ccccc2nc1CN(C)C1CCCN(c2cccnn2)C1 (configuration not stated) | > 100 µM | –
11 | CC(C)(C)c1nc(CNC2CCCN(c3cccnn3)C2)no1 (configuration not stated) | 39.6 µM and 34.1 µM | IC50 [3]: > 50.1 µM; IC50 [4]: > 50.1 µM
12 | c1ccc(CNc2ncc(CN3CCCN4CCC[C@H]4C3)cn2)cc1 | 39.6 µM and 38.3 µM | –
13 | CCCn1cc(NC(=O)c2ccc(NC(=O)NC3CC3)cc2)ccc1=O | 4.75 µM and 4.19 µM | IC50 (Histidine--tRNA ligase [2]): 5.84 µM and 7.08 µM
14 | O=C(O)c1cncc(Cc2ccccc2F)c1 | > 100 µM | –
15 | Cc1nc(C)n(CC2CCCN2Cc2nc3ccccc3s2)n1 (configuration not stated) | > 100 µM | –
16 | Cc1nc(C)n(CC2CCCN2Cc2nc(N)c3ccccc3n2)n1 (configuration not stated) | > 100 µM | –
17 | Cc1ccnc(C2CN(Cc3ccc(-c4ccccc4C(=O)O)o3)C2)n1 | 48.1 µM and 40.7 µM | –
18 | Cc1nc(C)n(CC2CCCN2Cc2nc3ccccc3n2C)n1 (configuration not stated) | > 100 µM | –
19 | Fc1ccc(F)c(CN2CCC(c3cnccn3)CC2)c1 | > 100 µM | –
20 | CN(C)[C@H]1CCCCN(Cc2cnc(NCc3ccccc3)nc2)C1 | > 100 µM | –
21 | COc1cccn(CC(=O)N2CCCC3(CCCO3)CC2)c1=O (configuration not stated) | > 100 µM | IC50 (Histidine--tRNA ligase [2]): > 100 µM

Row | SMILES | IC50 (Histidine--tRNA ligase [1]) | other results
22 | COC(=O)c1ccc(CNC(=O)Nc2ccc(=O)n(C)c2)cc1 | 3.6 µM and 3.34 µM | IC50 (Histidine--tRNA ligase [2]): 1.41 µM and 1.19 µM and 3.2 µM and 2.68 µM
23 | Cc1ccc(N2Cc3c(CN(C)C)nn(C)c3C2)nn1 | > 100 µM | –
24 | c1ccc(CNc2ncc(CN3CC[C@H]4CC[C@@H](C3)N4)cn2)cc1 | > 100 µM | –
25 | CCCn1cc(NC(=O)c2ccc(N(C)CC)cc2)ccc1=O | > 100 µM | –
26 | CC(C)(O)CCc1cccc(C(=O)NCc2nccs2)c1 | > 100 µM | –
27 | c1cncc(-c2noc(CNC3CCCN(c4cccnn4)C3)n2)c1 (configuration not stated) | > 100 µM | –
28 | CNc1cc(-c2cccc(CN)c2)c2cc[nH]c2n1 | 27.7 µM and 26.3 µM | IC50 (Histidine--tRNA ligase [2]): 25.1 µM and 23.5 µM; IC50 (ClpP1P2): > 100 µM
29 | CCN(CC)CCNC(=O)CCc1c(C)nn(-c2ccccc2Cl)c1C | > 100 µM | –
30 | Cc1cc(=O)n(C)cc1NC(=O)Cc1ccc(C(F)(F)F)cc1 | 5.22 µM and 5.49 µM | IC50 (Histidine--tRNA ligase [2]): 6.69 µM and 5.43 µM
31 | O=C1N(CC2CC2)CCC12CCN(c1ncccn1)CC2 | > 100 µM | –
32 | CCCn1cc(NC(=O)c2cccnc2O)ccc1=O | > 100 µM | –
33 | CN(Cc1nc2ccccc2o1)CC1CCCN1c1cccnn1 (configuration not stated) | > 100 µM | –
34 | Cc1cnc(N2CCCC3(COCCN(c4ccc(C)nn4)C3)C2)nc1 (configuration not stated) | > 100 µM | –
35 | c1cnnc(N2CCCC(NCc3nc(-c4ccsc4)no3)C2)c1 (configuration not stated) | > 100 µM | –
36 | NCC1Cc2cccc(-c3nccc(N4CCC(O)CC4)n3)c2O1 (configuration not stated) | > 100 µM | –
37 | Cc1nc(C)n(CC2CCCN2Cc2nc(C)c3ccccc3n2)n1 (configuration not stated) | 30.1 µM and 20 µM | IC50 (Histidine--tRNA ligase [2]): 31 µM and 34.3 µM
38 | Cc1ccc(N2CCCC3(COCCN(c4ncccn4)C3)C2)nn1 (configuration not stated) | > 100 µM | –
39 | Nc1cc(-c2nccnc2N2CCCC2)c2cc[nH]c2n1 | 64.4 µM and 75.3 µM | –
40 | O=C(O)c1cncc(Cc2ccc(F)cc2)c1 | > 100 µM | –
41 | CN1CCN2CCN(Cc3cnc(NCc4ccccc4)nc3)CC2C1 (configuration not stated) | > 100 µM | –
42 | Nc1nccc(C2CN(Cc3ccc(-c4ccccc4C(=O)O)o3)C2)n1 | 32.2 µM and 50.5 µM | IC50 (Histidine--tRNA ligase [2]): 25.3 µM and 25.4 µM
